Reference: US4866091A, “Alkanesulfonanilide derivatives, processes for preparation thereof and pharmaceutical composition comprising the same” (Fujisawa Pharmaceutical Co., Ltd., priority 1986, dated 1989)
Like-named read-outs stand apart in the source and are kept apart here.

Columns and labels:
[1] = test system: writhing syndrome induced by acetic acid in mice; assay: Test 2: writhing syndrome induced by acetic acid in mice (analgesic activity); assay type: in vivo, male ddY mice; details: Mus musculus
Procedure: Writhing syndrome induced by acetic acid in mice Ten male ddY mice were used per group. Writhing syndrome was produced by an intraperitoneal injection of 20 ml/kg of 0.6% acetic acid in mice. The animals were observed from 3 to 13 minutes after acetic acid injection, and a total number of writhing episodes was recorded. The drugs were given orally 1 hour before acetic acid injection. The frequency of writhing in the treated animals was compared with that in the control animals.

[2] = test system: pyrexia induced by brewer's yeast in rats; assay: Test 3: anti-pyretic activity, brewer's yeast-induced pyrexia in rats; assay type: in vivo, male Sprague-Dawley rats; details: Rattus norvegicus, oral
Procedure: Anti-pyretic activity Ten male Sprague-Dawley rats were used per group. Pyrexia was induced by SC injection of 10 ml/kg of 5% brewer's yeast suspension. The drugs were given orally […] after yeast injection. Rectal temperature was measured 1 and 2 hours after administration of drugs, and the difference of rectal temperature from that before yeast injection was calculated.

[3] = test system: inflammatory hyperalgesia induced by brewer's yeast in rats; assay: Test 5: inflammatory hyperalgesia induced by brewer's yeast in rats (analgesic activity); assay type: in vivo, male Sprague Dawley rats
Procedure: Inflammatory hyperalgesia induced by brewer's yeast in rats
Ten male Sprague Dawley rats were used per group. 0.1 Ml of 5% brewer's yeast suspended in 0.5% methylcellulose was injected into the right hind paw, The pain threshold was determined 3 hours after yeast injection, by applying pressure to the foot and reading the pressure at which the rat withdrew the foot.
The drugs were given orally 2 hours after yeast infection. The pain threshold in the treated animals was compared with that in the control animals.

[4] = rectal temperature 1 hour after administration, read-out: ED50 (1 hr)
[5] = rectal temperature 2 hours after administration, read-out: ED50 (2 hr)
[6] = oral, 1 hour before acetic acid injection, number of writhing episodes 3 to 13 minutes after, read-out: ED50

## COc1ccc2c(c1)c(CC(=O)O)c(C)n2C(=O)c1ccc(Cl)cc1 [Indomethacin, reference compound]
[1]; po
  ED50: 1.6 mg/kg
[2]; [4]
  ED50: 4.6 mg/kg
[2]; [5]
  ED50: 2.6 mg/kg
[3]; oral, 2 hours after yeast injection, pain threshold 3 hours after yeast injection, read-out: ED30
  ED30: 5.1 mg/kg

## CC(=O)c1ccc(NS(C)(=O)=O)c(Oc2ccc(F)cc2F)c1 [Example 1, 4'-acetyl-2'-(2,4-difluorophenoxy)methanesulfonanilide]
[1]; [6]
  ED50: 14 mg/kg
[2]; [4]
  ED50: 10 mg/kg
[2]; [5]
  ED50: 6.8 mg/kg

## Cc1cc(NS(C)(=O)=O)c(Oc2ccc(F)cc2F)cc1C#N [Example 20, 4'-Cyano-2'-(2,4-difluorophenoxy)-5'-methylmethanesulfonanilide]
[1]; [6]
  ED50: 55.8 mg/kg

## CS(=O)(=O)Nc1ccc(C#N)cc1Oc1ccc(F)cc1F [Example 3, 4'-Cyano-2'-(2,4-difluorophenoxy)methanesulfonanilide]
[1]; [6]
  ED50: 2.4 mg/kg

## CS(=O)(=O)Nc1ccc(C#N)cc1Oc1ccc(F)cc1F.[Na] [Example 73, 4'-cyano-2'-(2,4-difluorophenoxy)methanesulfonanilide sodium salt]
[3]; po
  ED30: 1.8 mg/kg

## CC(=O)c1ccc(NS(C)(=O)=O)c(Oc2ccc(F)cc2Cl)c1 [Example 25, 4'-Acetyl-2'-(2-chloro-4-fluorophenoxy)methanesulfonanilide]
[1]; [6]
  ED50: 9.6 mg/kg

## CC(=NNC(N)=O)c1ccc(NS(C)(=O)=O)c(Oc2ccc(F)cc2F)c1 [Example 40, 3'-(2,4-difluorophenoxy)-4'-methanesulfonamidoacetophenone semicarbazone]
[1]; [6]
  ED50: 18 mg/kg
